Data as given in patent US20220016060A1, “USE OF SODIUM 2-(3-PENTYLPHENYL)ACETATE IN THE TREATMENT OF ALSTRÖM SYNDROME” (LIMINAL BIOSCIENCES LIMITED, priority 2018, published 2022).
Values joined by “and” are separate entries in the source; they are usually repeats but may differ in a detail not shown here. Identical values can stand only once. “Also recorded” adds a separate entry of the source.

Legend:
Assay type in all cases: in vivo, human
ALMS patients [1] = assay: Histological examination of adipocyte tissue, average adipocyte area
Method: The study was a Phase 2, single-centre, single-arm, open-label study of sodium 2-(3-pentylphenyl)acetate administered at a total daily oral dose of 800 mg for up to 72 weeks in subjects with ALMS was undertaken. The initial duration of the study was 24 weeks, and subjects were offered to enrol into an extension phase of 36 or 48 weeks. The schedule of study procedures for the enrolment, intervention, and assessments for participants is outlined in FIG. 1. Sodium 2-(3-pentylphenyl)acetate was formulated in soft gelatine capsules containing 200 mg of Sodium 2-(3-pentylphenyl)acetate (amorphous powder) per capsule, polyethylene glycol 400, National Formulary (NF), hydrochloric acid (for pH adjustment), and water. Histological examination of adipocyte tissue in an ALMS subject (before study drug treatment) was characterized by hypertrophy and coalescence of adipocytes, forming giant vesicular vacuolation/steatosis (FIG. 2A). […] Decreases in average adipocyte area from baseline ranged from 11% to 26%. Of note, the largest increase in average adipocyte area from baseline occurred in Subject 826-001-012 (25%), who had ongoing medical histories of hypothyroidism, myocardial ischemia, T2D, chronic kidney disease, and dyslipidemia. This subject was also characterized as obese with a baseline BMI of 38.13 kg/m^2.

ALMS patients [2] = assay: Histological examination of adipocyte tissue artery (perivascular adipose tissue); details: an ALMS subject; after 24 weeks of treatment with 800 mg; FIG. 3B
Method: The study was a Phase 2, single-centre, single-arm, open-label study of sodium 2-(3-pentylphenyl)acetate administered at a total daily oral dose of 800 mg for up to 72 weeks in subjects with ALMS was undertaken. The initial duration of the study was 24 weeks, and subjects were offered to enrol into an extension phase of 36 or 48 weeks. The schedule of study procedures for the enrolment, intervention, and assessments for participants is outlined in FIG. 1. Sodium 2-(3-pentylphenyl)acetate was formulated in soft gelatine capsules containing 200 mg of Sodium 2-(3-pentylphenyl)acetate (amorphous powder) per capsule, polyethylene glycol 400, National Formulary (NF), hydrochloric acid (for pH adjustment), and water. Baseline histological examination of an adipocyte tissue artery (perivascular adipose tissue) in an ALMS subject was characterized by signs of dystrophy, homogenized blurred cytoplasm in smooth muscle cells, and nuclei with irregular shape (FIG. 3A).

ALMS patients [3] = assay: Enhanced Liver Fibrosis (ELF) blood test; set-up: increase in ELF test score from baseline / Change from Baseline ELF Test, Median / ELF Test score: scale not given here; details: for Change from Baseline ELF Test, Mean (SD) / Change from Baseline ELF Test, Median / ELF Test score / Severity of Liver Fibrosis Based on ELF Test: 800 mg daily oral; for ELF Test score / Severity of Liver Fibrosis Based on ELF Test: individual subjects
Method: The study was a Phase 2, single-centre, single-arm, open-label study of sodium 2-(3-pentylphenyl)acetate administered at a total daily oral dose of 800 mg for up to 72 weeks in subjects with ALMS was undertaken. The initial duration of the study was 24 weeks, and subjects were offered to enrol into an extension phase of 36 or 48 weeks. The schedule of study procedures for the enrolment, intervention, and assessments for participants is outlined in FIG. 1. Sodium 2-(3-pentylphenyl)acetate was formulated in soft gelatine capsules containing 200 mg of Sodium 2-(3-pentylphenyl)acetate (amorphous powder) per capsule, polyethylene glycol 400, National Formulary (NF), hydrochloric acid (for pH adjustment), and water. The effect of sodium 2-(3-pentylphenyl)acetate on liver histology in ALMS patients was also assessed using the Enhanced Liver Fibrosis (ELF™) blood test. The ELF™ Blood Test combines three serum biomarkers (Hyaluronic acid (HA), Procollagen III amino terminal peptide (PIIINP), and Tissue inhibitor of metalloproteinase 1 (TIMP-1)) which, when correlated, are able to identify a quantifiable level of liver fibrosis.

ALMS patients [4] = assay: Cardiac MRI of myocardial fibrosis (SAX T1); details: for Change from Baseline Basal SAX T1, Mean / Change from Baseline Basal SAX T1, Median / Change from Baseline Mid SAX T1, Mean / Change from Baseline Mid SAX T1, Median: 800 mg daily oral
Method: The study was a Phase 2, single-centre, single-arm, open-label study of sodium 2-(3-pentylphenyl)acetate administered at a total daily oral dose of 800 mg for up to 72 weeks in subjects with ALMS was undertaken. The initial duration of the study was 24 weeks, and subjects were offered to enrol into an extension phase of 36 or 48 weeks. The schedule of study procedures for the enrolment, intervention, and assessments for participants is outlined in FIG. 1. Sodium 2-(3-pentylphenyl)acetate was formulated in soft gelatine capsules containing 200 mg of Sodium 2-(3-pentylphenyl)acetate (amorphous powder) per capsule, polyethylene glycol 400, National Formulary (NF), hydrochloric acid (for pH adjustment), and water. The effect of sodium 2-(3-pentylphenyl)acetate on heart histology in ALMS patients was also assessed by measuring short-axis (plane) longitudinal relaxation time (SAX T1). A decrease in relaxation time reflects an improvement in heart histology, such as a decrease of myocardial fibrosis, which reduces the risk of cardiac failure.

[5] = 800 mg, Week 24, mean of subjects
[6] = 800 mg, Week 24, median of subjects
[7] = Subject 826-001-001, 204-day break in treatment

CCCCCc1cccc(CC(=O)[O-])c1.[Na+] [sodium 2-(3-pentylphenyl)acetate]
Average Adipocyte Area, % Change from Baseline, Mean (ALMS patients [1]; [5]): −9% | Average Adipocyte Area, Mean (ALMS patients [1]; [5]): 5550.7 μm^2 | Average Adipocyte Area, % Change from Baseline, Median (ALMS patients [1]; [6]): −12% | Average Adipocyte Area, Median (ALMS patients [1]; [6]): 5195.1 μm^2 | subjects in whom average adipocyte area decreased from baseline (ALMS patients [1]; 6/9 subjects, after 24 weeks): 66.7% | largest increase in average adipocyte area from baseline (ALMS patients [1]; Subject 826-001-012, after 24 weeks): 25% | histological examination of adipocyte tissue (ALMS patients [1]; an ALMS subject, after 24 weeks of treatment with 800 mg, FIG. 2B): more distinct adipocytes were seen that were smaller in size with no observed coalescence | histological examination of adipocyte tissue artery (ALMS patients [2]): the adipocyte tissue artery looked more normal | subjects in whom ELF test score decreased from baseline (ALMS patients [3]; 6/12 subjects): 50.0% | subjects in whom severity of liver fibrosis based on the ELF test was stable or improved from baseline (ALMS patients [3]; 10/12 subjects): 83.3% | Change from Baseline ELF Test, Mean (SD) (ALMS patients [3]; EP Week 12 (Week 36), N=10): −0.24 (1.056) | Change from Baseline ELF Test, Median (ALMS patients [3]; EP Week 12 (Week 36), N=10): −0.02 | Change from Baseline ELF Test, Mean (SD) (ALMS patients [3]; EP Week 24 (Week 48), N=9): −0.22 (1.086) | Change from Baseline ELF Test, Median (ALMS patients [3]; EP Week 24 (Week 48), N=9): −0.13 | Change from Baseline ELF Test, Mean (SD) (ALMS patients [3]; EP Week 36 (Week 60), N=8): −0.26 (1.193) | Change from Baseline ELF Test, Median (ALMS patients [3]; EP Week 36 (Week 60), N=8): −0.03 | change in severity of liver fibrosis based on ELF test (ALMS patients [3]; [7]): increase in liver fibrosis from moderate to severe | increase in ELF test score from baseline (ALMS patients [3]; [7]): 1.36 | increase in ELF test score from baseline (ALMS patients [3]; Subject 826-001-004, 30-day break in treatment): 1.17 | Change from Baseline ELF Test, Mean (SD) (ALMS patients [3]; Week 12, N=12): 0.02 (1.023) | Change from Baseline ELF Test, Median (ALMS patients [3]; Week 12, N=12): 0.24 | Change from Baseline ELF Test, Mean (SD) (ALMS patients [3]; Week 24, N=12): −0.26 (0.933) | Change from Baseline ELF Test, Median (ALMS patients [3]; Week 24, N=12): 0.06 | ELF Test score (ALMS patients [3]; EP Week 12 (Week 36)): 9.13 and 8.68 and 7.68 and 8.19 and 6.80 and 9.92 and 8.48 and 11.58 and 8.75 and 8.73 | Severity of Liver Fibrosis Based on ELF Test (ALMS patients [3]; EP Week 12 (Week 36)): Mod (moderate fibrosis ≥ 7.7 to < 9.8); also recorded: NTM (None to mild fibrosis < 7.7); also recorded: Sev (severe fibrosis ≥ 9.8) | ELF Test score (ALMS patients [3]; EP Week 24 (Week 48)): 10.30 and 8.00 and 6.98 and 7.45 and 6.95 and 8.36 and 11.14 and 8.76 and 8.74 | Severity of Liver Fibrosis Based on ELF Test (ALMS patients [3]; EP Week 24 (Week 48)): Sev (severe fibrosis ≥ 9.8); also recorded: Mod (moderate fibrosis ≥ 7.7 to < 9.8); also recorded: NTM (None to mild fibrosis < 7.7) | ELF Test score (ALMS patients [3]; EP Week 36 (Week 60)): 10.28 and 8.42 and 7.16 and 9.90 and 8.50 and 10.79 and 8.64 and 8.74 | Severity of Liver Fibrosis Based on ELF Test (ALMS patients [3]; EP Week 36 (Week 60)): Sev (severe fibrosis ≥ 9.8); also recorded: Mod (moderate fibrosis ≥ 7.7 to < 9.8); also recorded: NTM (None to mild fibrosis < 7.7) | ELF Test score (ALMS patients [3]; Week 12): 8.50 and 8.63 and 9.75 and 7.98 and 7.93 and 7.33 and 10.05 and 9.71 and 10.96 and 8.51 and 11.25 and 9.05 | Severity of Liver Fibrosis Based on ELF Test (ALMS patients [3]; Week 12): Mod (moderate fibrosis ≥ 7.7 to < 9.8); also recorded: NTM (None to mild fibrosis < 7.7); also recorded: Sev (severe fibrosis ≥ 9.8) | ELF Test score (ALMS patients [3]; Week 24): 9.31 and 9.02 and 8.60 and 7.14 and 7.26 and 7.31 and 10.39 and 8.41 (2×) and 10.69 and 8.47 and 11.29 | Severity of Liver Fibrosis Based on ELF Test (ALMS patients [3]; Week 24): Mod (moderate fibrosis ≥ 7.7 to < 9.8); also recorded: NTM (None to mild fibrosis < 7.7); also recorded: Sev (severe fibrosis ≥ 9.8) | Change from Baseline Basal SAX T1, Mean (ALMS patients [4]; EP Week 36 (Week 60), N=4): -84.75 ms | Change from Baseline Basal SAX T1, Median (ALMS patients [4]; EP Week 36 (Week 60), N=4): -80.50 ms | Change from Baseline Mid SAX T1, Mean (ALMS patients [4]; EP Week 36 (Week 60), N=4): -54.63 ms | Change from Baseline Mid SAX T1, Median (ALMS patients [4]; EP Week 36 (Week 60), N=4): -51.00 ms | Change from Baseline Basal SAX T1, Mean (ALMS patients [4]; Week 24, N=9): -10.67 ms | Change from Baseline Basal SAX T1, Median (ALMS patients [4]; Week 24, N=9): -1.50 ms | Change from Baseline Mid SAX T1, Mean (ALMS patients [4]; Week 24, N=9): -4.11 ms | Change from Baseline Mid SAX T1, Median (ALMS patients [4]; Week 24, N=9): 0.00 ms | mean decrease in Basal SAX T1 from baseline (ALMS patients [4]; after 60 weeks of treatment, p=0.0274): 84.75 ms | mean decrease in Mid SAX T1 from baseline (ALMS patients [4]; after 60 weeks of treatment, p=0.0349): 54.63 ms
